The text below walks through data of patent US10124065B2, “Lipids and lipid compositions for the delivery of active agents” (Novartis AG, priority 2013, dated 2018).

One data set deals with human leptin. Nature of the data set: Mouse intravenous tail vein injection of modified synthetic leptin mRNA, human leptin ELISA. Format: in vivo, C57BL/6 mouse. Particulars: human leptin in mouse plasma, 10 μg leptin mRNA, 24 h. The protocol:
Before the tail vein injection, mouse body weights were recorded and diet weighted, with mice grouped according to their body weights. Mice were prepared by warming them under a heating lamp for ˜2 minutes, with the mice about 12 inches from heat lamp.
For the tail vein injection procedure, the mice were placed in a restrainer and their tails cleaned with 70% alcohol. A 27 gauge needle (Becton Dickinson, Catalogue #305109) connected with a 1 ml syringe (Becton Dickinson, Catalogue #309659) was inserted into the tail vein, with bevel facing up, and the syringe plunger was pulled backwards to ensure blood is drawn into the syringe. The desired volume of modified synthetic leptin mRNA was injected by hand with moderate pressure and speed. The needle was then withdrawn and bleeding stopped by adding pressure to injection site with gauze.
Single housed, 8-9 week old, male C57BL/6 mice were used for the in vivo study. FPLC purified modified synthetic leptin mRNA (SEQ ID NO: 5) in which the uridines were substituted with pseudouridine was packaged in a cationic lipid (N:P molar ratio=8:1) and then were diluted in injectable saline at a dose of 10 μg per average group body weight.
On day 0, animals were weighed and sorted according to average body weight. Mice were dosed, and food intake (FI) was recorded, on each of days 1-7 and days 9, 11, and 16.
Human leptin in mouse plasma was measured by ELISA. Antibodies purchased from the R&D Systems duoset (Cat# DY398E, part#840279 for capture antibody and part#840280 for detection antibody) were reconstituted using PBS and titered, again using PBS. The capture antibody was coated at 4 ug/ml in 30 ul/well on a white Nunc® Maxisorp 384 well plate (Cat#460372). After an overnight incubation at room temperature the capture antibody was aspirated and the plate blocked for 2 hours at room temperature with 90 ul/well of KPL milk blocker (Cat#50-82-00). Once the incubation was completed the plate was aspirated and recombinant standards and samples were added to the plate at 30 ul/well for 2 hours at 37° C. while shaking at 600 rpm. Sample/standard dilutions were made using casein sample diluent. Washing/aspiration 3 times with 100 ul/well followed, using Teknova plate wash solution (Cat# P1192). Next, detection antibody was diluted using casein detection antibody diluent to 12.5 ng/ml and added at 30 ul/well for 2 hours room temperature. After this incubation, the plate was washed again and a solution of poly-streptavidin-HRP (Cat#21140) at a 1:1250 dilution in HRP dilution buffer was added to each well (30 ul/well) and incubated for 30 minutes room temperature. A final wash/aspiration removed the HRP solution and a chemiluminescent substrate was added at 30 ul/well (Cat#1859678 & 1859679). The plate was quickly read using a SpectramaxM5 plate reader with a 50 ms integration time. The dynamic range of the ELISA is from 100-2,000 pg/ml (6.25-125 pM) of human leptin.
A general note: ELISA stands for enzyme-linked immunosorbent assay.

A short description of data set [1]: Particle size of lipid nanoparticle (dynamic light scattering, Malvern Zetasizer). Format: physicochemical. An excerpt:
The lipid nanoparticles have a size of about 1 to about 2,500 nm, about 1 to about 1,500 nm, about 1 to about 1,000 nm, in a sub-embodiment about 50 to about 600 nm, in a sub-embodiment about 50 to about 400 nm, in a sub-embodiment about 50 to about 250 nm, and in a sub-embodiment about 50 to about 150 nm. Unless indicated otherwise, all sizes referred to herein are the average sizes (diameters) of the fully formed nanoparticle, as measured by dynamic light scattering on a Malvern Zetasizer. The nanoparticle sample is diluted in phosphate buffered saline (PBS) so that the count rate is approximately 200-400 kcts. The data is presented as a weighted average of the intensity measure. Unless indicated otherwise, all particle size measurements referred to in Tables 4 and 5 are the Z-average particle size of the fully formed nanoparticle, as measured by dynamic light scattering on a Malvern Zetasizer. The nanoparticle sample was diluted in phosphate buffered saline (PBS) so that the count rate is approximately 200-400 kcts.

A short description of data set [2]: Polydispersity index (PDI) of lipid nanoparticle (dynamic light scattering). Format: physicochemical. As for the experimental part: Unless indicated otherwise, all PDIs referred to herein are the PDI of the fully formed nanoparticle, as measured by dynamic light scattering on a Malvern Zetasizer. The nanoparticle sample was diluted in phosphate buffered saline (PBS) so that the count rate was approximately 200-400 kcts. The data is presented in Tables 4 and 5 as a weighted average of the intensity measure.

Data set [3] has as its system plasma Factor VII enzyme activity. Nature of the data set: Mouse Factor VII dosing / Factor VII Activity Assay. Format: in vivo. Particulars: percent knock down of plasma Factor VII activity, CD-1 mice, 48 h; for KD FVII 0.03 mg/kg: single IV dose 0.03 mg/kg, LNP Chol/DSPC/S010 45/44/9/2; for KD FVII 0.3 mg/kg: single IV dose 0.3 mg/kg, LNP Chol/DSPC/PEG-DMG 45/44/9/2. A digest of the protocol: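 Female CD-1 mice (~25 g) received a single IV tail-vein dose of lipid-nanoparticle-formulated Factor VII siRNA (0.3 or 0.03 mg/kg). Plasma taken ~48 h later; FVII activity measured chromogenically against vehicle-control plasma standard curve, reported as % knockdown.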

In the next data set the test system is PLK-1 mRNA. In words: LS411N Xenograft Assay. Type of data set: in vivo, Nu/Nu mice. Particulars: percent knock down of PLK-1 mRNA vs control in LS411N tumors, IV 3 mg/kg daily for three days. As for the experimental part:
Female Nu/Nu mice (6-8 weeks old) were implanted subcutaneously with 5×10^6 LS411N cells. Tumor growth was monitored by caliper measurement before treatment initiation. Mice bearing 150-250 mm^3 subcutaneous tumors were randomized and enrolled in the study. The stock siRNA formulations were diluted to […] with PBS for dosing. Animals enrolled in different groups received a single daily bolus IV injection of 3 mg/kg siRNA for three days. Tumors were harvested 24 hours post last injection to assess target gene regulation by qRT-PCR.
Lipid nanoparticles comprising lipid compounds of formula (I) and the PLK1-424 siRNA duplex sequence listed above were tested in the LS411N Xenograft Assay. The results of this assay are given in Table 5 below as a percent knock down of PLK-1 mRNA as compared to the control when administered as a single daily dose for three days at a dose of 3 mg/kg.

Data set [4] in a line: pKa measurement of cationic lipid (TNS fluorescence). Type of data set: physicochemical. Particulars: pKa of the cationic lipid of formula (I), Table 4. As for the experimental part: Unless indicated otherwise, all pKa's referred to herein were measured at standard temperature and pressure. Also, unless otherwise indicated, all references to pKa are references to pKa measured using the following technique. 2 mM solution of lipid in ethanol was prepared by weighing the lipid and then dissolving it in ethanol. 0.3 mM solution of fluorescent probe TNS in ethanol:methanol 9:1 was prepared by first making 3 mM solution of TNS in methanol and then diluting to 0.3 mM with ethanol. An aqueous buffer containing 200 mM sodium phosphate dibasic and 100 mM citric acid was prepared. […] Using the Hamilton Microlab Star high throughput liquid handler and Hamilton run control software Software, 7.5 uL of probe/lipid mix were added to 242.5 uL of buffer in a 1 mL 96 well plate (model NUNC 260252, […] Nunc International). This was done with all twelve buffers. After mixing in 1 mL 96 well plate, 100 uL of each probe/lipid/buffer mixture was transferred to a 250 uL black with clear bottom 96 well plate (model COSTAR 3904, Corning). The fluorescence measurements are carried out on the SpectraMax M5 spectrophotometer using software SoftMax pro 5.2 and following parameters: After the measurement, the background fluorescence value of an empty well on the 96 well plate was subtracted from each probe/lipid/buffer mixture. The fluorescence intensity values were then normalized to the value at lowest pH. The normalized fluorescence intensity vs. pH chart was then plotted in the Microsoft Excel software. The twelve points were connected with a smooth line. The point on the line at which the normalized fluorescence intensity was equal to 0.5 was found. […] The pKa determined using this method is precise to about 0.1 pKa units.

The subject of data set [5] is respiratory syncytial virus F protein. In words: Immunization studies, anti-RSV-F titers. Type of data set: in vivo. Particulars: anti-RSV-F titer, BALB/c, course A = days 0 & 21, liposomes with 0.1 μg vA317 replicon (naked: 1 μg); for 2wp1 pool 1 / 2wp1 pool 2: 2 weeks after first dose; for 2wp2 pool 1 / 2wp2 pool 2: 2 weeks after second dose. As for the experimental part: BALB/c were immunized with liposomes comprising DSPC, cholesterol, and various lipids of the invention (or, for comparison, the cationic lipid 1,2-dilinoleyloxy-N,N-dimethyl-3-aminopropane or ‘DLinDMA’). The liposomes encapsulated 0.1 μg of “vA317” self-replicating RNA replicon which encodes respiratory syncytial virus F protein (see WO2012/031043). […] Doses were given either on days 0 & 21 or days 0 & 42. Immune responses were assessed 2 weeks after each dose (2wp1, 2wp2), and in some cases also at 4 weeks after the second dose (4wp2).
For orientation: A replicon is a self-replicating genome or part of one, used to study replication in cells.

The mark [6] stands for this setting: FVII siRNA LNP, Chol/DSPC/S010, molar ratio 45/44/9/2, Z-average.
Setting [7] is: PLK1-424 siRNA LNP, Chol/DSPC/PEG-DSG 45/44/9/2.
[8] abbreviates: FVII siRNA LNP, Chol/DSPC/S010, molar ratio 45/44/9/2.
Setting [9] is: FVII siRNA LNP, Chol/DSPC/PEG-DMG, molar ratio 45/44/9/2, Z-average.
Where [10] appears, read: FVII siRNA LNP, Chol/DSPC/PEG-DMG, molar ratio 45/44/9/2.
The mark [11] stands for this setting: PLK1-424 siRNA LNP, Chol/DSPC/S011 45/44/9/2.

Read-outs that look alike come from different tables or passages of the source.

Consider `CCCCCCCC(=O)OCCCCCC(=O)OCc1cc(COC(=O)CCCCCOC(=O)CCCCCCC)cc(CN(C)C)c1` [Example 85, (((5-((dimethylamino)methyl)-1,3-phenylene)bis(methylene))bis(oxy))bis(6-oxohexane-6,1-diyl)dioctanoate], for which the “Leptin expression IV-C57BI/6, 24 h” value with human leptin is on record as 1.78 ng/mL.

In the case of `CCCCC/C=C\C/C=C\CCCCCCCC(=O)OCCCCOc1cc(CN(C)C)cc(OCCCCOC(=O)CCCCCCC/C=C\CCCCCCCC)c1` [Example 63, (9Z,12Z)-4-(3-((dimethylamino)methyl)-5-(4-(oleoyloxy)butoxy)phenoxy)butyl octadeca-9,12-dienoate], the “Size (nm)” value in data set [1] (setting [6]) is recorded as 91.66 nm; in data set [1] (setting [7]), 108.6 nm. The PDI in data set [2] (setting [8]) was 0.057; in data set [2] (setting [7]) it was 0.047. Further, in data set [3], the “KD FVII 0.03 mg/kg” value is 75%. Also, the “LS411 KD 3 × 3 mg/Kg” value in the data set on PLK-1 mRNA (LNP Chol/DSPC/PEG-DSG 45/44/9/2) is recorded as 66%.

With `CCCCCCCC(=O)OC[C@@H](CCOc1cc(CN(C)C)cc(OCC[C@@H](COC(=O)CCCCCCC)OC(=O)CCCCCCC)c1)OC(=O)CCCCCCC` [Example 92, (R)-4-(3-((S)-3,4-bis(octanoyloxy)butoxy)-5-((dimethylamino)methyl)phenoxy)butane-1,2-diyldioctanoate], in data set [3], the “KD FVII 0.03 mg/kg” value is 89.4%. The “Leptin expression IV-C57BI/6, 24 h” value in the data set with human leptin is reported as 1.34 ng/mL.

As for `CCCCCCCC(=O)OCCCCCCCCOc1cc(CN(C)C)cc(OCCCCCCCCOC(=O)CCCCCCC)c1` [Example 42, ((5-((dimethylamino)methyl)-1,3-phenylene)bis(oxy))bis(octane-8,1-diyl)dioctanoate], the “KD FVII 0.03 mg/kg” value in data set [3] was determined as 92.8%. The “LS411 KD 3 × 3 mg/Kg” value in the data set with PLK-1 mRNA (LNP Chol/DSPC/S010 45/44/9/2) is recorded as 50%.

With `CCCCC/C=C\C/C=C\CCCCCCCC(=O)Oc1cc(COC(=O)CCN(C)C)cc(OC(=O)CCCCCCC/C=C\C/C=C\CCCCC)c1` [Example 26, (9Z,9′Z,12Z,12′Z)-5-(((3-(dimethylamino)propanoyl)oxy)methyl)-1,3-phenylene bis(octadeca-9,12-dienoate)], the pKa (commonly the negative logarithm of the acid dissociation constant) in data set [4] (probe TNS, read-out: pKa) is 6.45. Also, the “Size (nm)” value in data set [1] (setting [9]) is on record as 104.3 nm. In addition, the “Size (nm)” value in data set [1] (setting [6]) amounted to 121.6 nm. For the same molecule, in data set [2] (setting [10]), the PDI turned out to be 0.04. Moreover, the PDI in data set [2] (setting [8]) is 0.046. For the same molecule, the “KD FVII 0.3 mg/kg” value in data set [3] is recorded as 58.1%. Further, in data set [5], the “2wp1 pool 1” value amounted to 4, the “2wp1 pool 2” value stood at 4, the “2wp2 pool 1” value came out at 10 and the “2wp2 pool 2” value was 10. For the same molecule, in data set [5] (4 weeks after second dose), the “4wp2 pool 1” value was 10 and the “4wp2 pool 2” value is 10.

In data set [4] (listed as Ex. 2), `CCCCC/C=C\C/C=C\CCCCCCCCOc1cc(CN(C)C)cc(OCCCCCCCC/C=C\C/C=C\CCCCC)c1` [Example 2, 1-(3,5-bis((9Z,12Z)-octadeca-9,12-dien-1-yloxy)phenyl)-N,N-dimethylmethanamine] returned a pKa of 5.46. Moreover, the “Size (nm)” value in data set [1] (setting [9]) came to 97.4 nm. Besides, in data set [1] (setting [6]), the “Size (nm)” value came to 92.85 nm. The “Size (nm)” value in data set [1] (setting [11]) is 88.19 nm. For the same molecule, the PDI in data set [2] (setting [10]) came to 0.04. For the same molecule, the PDI in data set [2] (setting [8]) turned out to be 0.067. The same molecule showed a PDI in data set [2] (setting [11]) of 0.1. In addition, in data set [3], the “KD FVII 0.03 mg/kg” value is on record as 55% and the “KD FVII 0.3 mg/kg” value is given as 95.5%. Besides, in data set [5], the “2wp1 pool 1” value amounted to 217, the “2wp1 pool 2” value came to 259, the “2wp2 pool 1” value was 12785 and the “2wp2 pool 2” value was found to be 8232.
